Results on 17 compounds are retold here after patent US20250019520A1, “RELIEF PRECURSORS WITH ENHANCED STABILITY” (XSYS Germany GmbH, priority 2023, published 2025).

The nature of one data set: Thermal melt stability: onset time of crosslinking, SIS-rubber based formulation. As to conditions: 160° C. It is filed as physicochemical. How it is done:
The thermal melt stability was assessed by recording the melt viscosity during heating. Crosslinking of the sample was recorded as an increase in viscosity. Oscillatory rheological measurements were carried out using a Kinexus lab+rheometer (Malvern Instruments Ltd., UK) under isothermal (T=160° C.) conditions. Data was recorded using the corresponding software rSPACE version 1.76 (Malvern Instruments Ltd., UK). As measurement geometry, parallel plates with a diameter of 2.5 cm of the upper plate were chosen. As sample, a disc of a relief precursor with a diameter of 2.5 cm was used. Prior to measurement, any foils (e.g. the cover sheet) and mask layers were removed from the relief precursor. Measurements were carried out in oscillation single frequency mode. The frequency was set to 1 Hz. The gap between the parallel plates was set constant to the respective sample thickness. Data points were recorded every 15 s. The complex shear viscosity η* was monitored over time t. The “onset time of crosslinking” was identified as “the time when the difference quotient Δη*/Δt is ≥1 Pa, with Δt=15 s”. A higher onset time indicates a higher thermal stability and stability towards mechanical stress.
In this example, another trial formulation based on a SIS tri-block copolymer was used. […]
As for `Cc1cc(C(C)(C)C)c(O)c(C(C)(C)C)c1` [BHT, 2,6-di-tert-butyl-4-methylphenol, reference compound], the “Onset time t (Δη*/Δt ≥ 1 Pa)/min” value worked out at 16 min.

A short description of another data set: Thermal melt stability: onset time of crosslinking by oscillatory rheology at 160° C., SBS-rubber based trial formulation. It is filed as physicochemical. As to conditions: SBS-rubber based plate formulation with 1 wt % carbamate derivative, crude reaction mixture added without purification. How it is done:
In the given examples, the amount of stabilizer was varied in the range of 0 to 6.5 parts by weight and the excess was counterbalanced by the amount of binder, respectively. The components were dissolved in a solvent, being toluene (also called methylbenzene) and heated under reflux to obtain a homogeneous solution (concentration in toluene: 45 wt. %).
The solution was then cast on a carrier sheet. The plate thickness was adjusted using a doctor blade with a gap of 3 mm distance to the carrier sheet (PET film with 175 μm thickness).
The solvent was allowed to evaporate at room temperature for 16 hours followed by heating at 65° C. for 4 hours. To allow digital imaging, a mask layer (ML) coated on a cover sheet (CL) was laminated on top of the relief precursor using an Excelam-Q laminator (GMP Deutschland GmbH, Germany). Lamination was carried out at a temperature of the heated roll of 110° C., a velocity of 8.8 mm/s, and at a gap of 1.5 mm. To finish the lamination, the cast plate was sandwiched between two aluminum plates and was kept at 65° C. for 3 h.
The thermal melt stability was assessed by recording the melt viscosity during heating. Crosslinking of the sample was recorded as an increase in viscosity. Oscillatory rheological measurements were carried out using a Kinexus lab+rheometer (Malvern Instruments Ltd., UK) under isothermal (T=160° C.) conditions. Data was recorded using the corresponding software rSPACE version 1.76 (Malvern Instruments Ltd., UK). […] Prior to measurement, any foils (e.g. the cover sheet) and mask layers were removed from the relief precursor. Measurements were carried out in oscillation single frequency mode. The frequency was set to 1 Hz. The gap between the parallel plates was set constant to the respective sample thickness. Data points were recorded every 15 s. The complex shear viscosity η* was monitored over time t. The “onset time of crosslinking” was identified as “the time when the difference quotient Δη*/Δt is ≥1 Pa, with Δt=15 s”. A higher onset time indicates a higher thermal stability and stability towards mechanical stress.
Reaction mixtures were used completely without purification and were simply added to the plate formulation during homogenization in toluene solution. The stoichiometric amount of the reactants was calculated in a way to obtain a concentration of 1 wt % carbamate derivative in the plate formulation, assuming full conversion of the reactants. […] The reaction was quenched with an excess ethanol (same volume as the reaction mixture) and added to the plate formulation in toluene solution. The procedure for production of the plate precursor was followed as mentioned above. The solution was cast on a carrier sheet and traces of THF/ethanol were evaporated together with toluene during the drying step of the plate precursor.
As for `CCCCNC(=O)OCC(OC(=O)NCCCC)C1OC(=O)C(O)=C1O` (stereo not drawn) [Entry 1, 1-(3,4-dihydroxy-5-oxo-2,5-dihydrofuran-2-yl) ethane-1,2-diyl bis(butylcarbamate)], the “Onset time t (Δη*/Δt ≥ 1 Pa)/min (OT)” value turned out to be 74 min. As to `Cc1ccc(S(=O)(=O)NC(=O)OCC(OC(=O)NS(=O)(=O)c2ccc(C)cc2)C2OC(=O)C(O)=C2O)cc1` (stereo not drawn) [Entry 2, 1-(3,4-dihydroxy-5-oxo-2,5-dihydrofuran-2-yl) ethane-1,2-diyl bis(tosylcarbamate)], the “Onset time t (Δη*/Δt ≥ 1 Pa)/min (OT)” value amounted to 5 min. Same read-out and setting: the figure for `O=C(Nc1ccccc1)OCC(OC(=O)Nc1ccccc1)C1OC(=O)C(O)=C1O` (stereo not drawn) [Entry 3, 1-(3,4-dihydroxy-5-oxo-2,5-dihydrofuran-2-yl) ethane-1,2-diyl bis(phenylcarbamate)] is 51 min. Regarding `CCO[Si](CCCNC(=O)OCC(OC(=O)NCCC[Si](OCC)(OCC)OCC)C1OC(=O)C(O)=C1O)(OCC)OCC` (stereo not drawn) [Entry 4, 1-(3,4-dihydroxy-5-oxo-2,5-dihydrofuran-2-yl) ethane-1,2-diyl bis((3-(triethoxysilyl)propyl) carbamate)], the “Onset time t (Δη*/Δt ≥ 1 Pa)/min (OT)” value is 20 min. For `CC(C)(C)NC(=O)OCC(OC(=O)NC(C)(C)C)C1OC(=O)C(O)=C1O` (stereo not drawn) [Entry 5, 1-(3,4-dihydroxy-5-oxo-2,5-dihydrofuran-2-yl) ethane-1,2-diyl bis(tert-butylcarbamate)], the “Onset time t (Δη*/Δt ≥ 1 Pa)/min (OT)” value came to 34 min.

As for `C=C(C)C(=O)OCCNC(=O)OCC(OC(=O)NCCOC(=O)C(=C)C)C1OC(=O)C(O)=C1O` (stereo not drawn) [Entry 6, 6-(3,4-dihydroxy-5-oxo-2,5-dihydrofuran-2-yl)-4,9-dioxo-5,8-dioxa-3,10-diazadodecane-1,12-diyl bis(2-methylacrylate)], the “Onset time t (Δη*/Δt ≥ 1 Pa)/min (OT)” value was 33 min. On the same count and under the same terms, the figure for `C=Cc1ccc(C(C)(C)NC(=O)OCC(OC(=O)NC(C)(C)c2ccc(C=C)cc2)C2OC(=O)C(O)=C2O)cc1` (stereo not drawn) [Entry 7, 1-(3,4-dihydroxy-5-oxo-2,5-dihydrofuran-2-yl) ethane-1,2-diyl bis((2-(4-vinylphenyl)propan-2-yl) carbamate)] is 24 min. Still for that read-out and setting: the figure for `O=C(NC1CCCCC1)OCC(OC(=O)NC1CCCCC1)C1OC(=O)C(O)=C1O` (stereo not drawn) [Entry 8, 1-(3,4-dihydroxy-5-oxo-2,5-dihydrofuran-2-yl) ethane-1,2-diyl bis(cyclohexylcarbamate)] is 52 min; for `C[Si](C)(C)NC(=O)OCC(OC(=O)N[Si](C)(C)C)C1OC(=O)C(O)=C1O` (stereo not drawn) [Entry 9, 1-(3,4-dihydroxy-5-oxo-2,5-dihydrofuran-2-yl) ethane-1,2-diyl bis((trimethylsilyl) carbamate)] it is 5 min; for `CCCCCCCCCCCCCCCCCCNC(=O)OCC(OC(=O)NCCCCCCCCCCCCCCCCCC)C1OC(=O)C(O)=C1O` (stereo not drawn) [Entry 10, 1-(3,4-dihydroxy-5-oxo-2,5-dihydrofuran-2-yl) ethane-1,2-diyl bis(octadecylcarbamate)] it is 6 min. Still for that read-out and setting: the figure for `CC(C)c1ccc(NC(=O)OCC(OC(=O)Nc2ccc(C(C)C)cc2)C2OC(=O)C(O)=C2O)cc1` (stereo not drawn) [Entry 11, 1-(3,4-dihydroxy-5-oxo-2,5-dihydrofuran-2-yl) ethane-1,2-diyl bis((4-isopropylphenyl) carbamate)] is 55 min; for `Cc1cccc(NC(=O)OCC(OC(=O)Nc2cccc(C)c2)C2OC(=O)C(O)=C2O)c1` (stereo not drawn) [Entry 12, 1-(3,4-dihydroxy-5-oxo-2,5-dihydrofuran-2-yl) ethane-1,2-diyl bis(m-tolylcarbamate)] it is 33 min; for `O=C(NCCc1ccccc1)OCC(OC(=O)NCCc1ccccc1)C1OC(=O)C(O)=C1O` (stereo not drawn) [Entry 13, 1-(3,4-dihydroxy-5-oxo-2,5-dihydrofuran-2-yl) ethane-1,2-diyl bis(phenethylcarbamate)] it is 6 min. In the case of `C=CCCCCCCCCCCNC(=O)OCC(OC(=O)NCCCCCCCCCCC=C)C1OC(=O)C(O)=C1O` (stereo not drawn) [Entry 14, 1-(3,4-dihydroxy-5-oxo-2,5-dihydrofuran-2-yl) ethane-1,2-diyl bis(dodec-11-en-1-ylcarbamate)], the “Onset time t (Δη*/Δt ≥ 1 Pa)/min (OT)” value was 44 min. For the compound `O=C(Nc1cccc2ccccc12)OCC(OC(=O)Nc1cccc2ccccc12)C1OC(=O)C(O)=C1O` (stereo not drawn) [Entry 15, 1-(3,4-dihydroxy-5-oxo-2,5-dihydrofuran-2-yl) ethane-1,2-diyl bis(naphthalen-1-ylcarbamate)], the “Onset time t (Δη*/Δt ≥ 1 Pa)/min (OT)” value is reported as 4 min. The same measure, in the same setting: the figure for `C=CC(=O)OCC(C)(COC(=O)C=C)NC(=O)OCC(OC(=O)NC(C)(COC(=O)C=C)COC(=O)C=C)C1OC(=O)C(O)=C1O` (stereo not drawn) [Entry 17, 2-((8-((acryloyloxy)methyl)-3-(3,4-dihydroxy-5-oxo-2,5-dihydrofuran-2-yl)-8-methyl-6,11-dioxo-2,5,10-trioxa-7-azatridec-12-en-1-oyl)amino)-2-methylpropane-1,3-diyl diacrylate] is 6 min.

Another data set is described as follows: Kneading trials at 180° C., onset of crosslinking seen as increase in torque. As to conditions: kneading at 180° C. for 60 min, SBS binder plus stabilizer. It is filed as physicochemical. How it is done:
Kneading trials were carried out using a ThermoFisher Scientifc Haake kneading device equipped with a Haake PolyLab OS RheoDrive 7 control unit, a Haake Rheomix 600 OS heating and kneading chamber with Roller Rotors R600. The torque and the sample temperature were recorded using the software PolySoft, version 2.1.0.1. For the measurement, a temperature of 180° C. was applied. The measurement was carried out for 60 min, respectively. The components were added to the kneading device as solids and were allowed to be mixed in the kneading device.
In the given sample, the amount of stabilizer was varied in the range of 0 to 1.0 parts by weight and the excess was counterbalanced by the amount of binder, respectively.
An increase in torque indicated the onset of crosslinking of the SBS-rubber due to insufficient stabilization. Without additional stabilizer, an increase in torque was observed within the first 10 min of measurement time. With BHT as stabilizer, an increase in torque was detected after 28 min of heating at 180° C. With ascorbyl palmitate, the best result was achieved, where crosslinking was observed after 50 min.
Take `Cc1cc(C(C)(C)C)c(O)c(C(C)(C)C)c1` [BHT, 2,6-di-tert-butyl-4-methylphenol, reference compound]: the Onset time t/min is 28 min.
